Test systems include DU-145 prostate; K-562 leukemia; MALME-3M melanoma; MDA-MB-231 breast; MDA-MB-435; NCI/ADR-RES ovarian; SK-OV-3 ovarian; SN12C renal; U251 CNS; UACC-62 melanoma.
Assay in all cases: NCI anticancer screen, dose series, 48 h

Values joined by “and” are separate entries in the source; they are usually repeats but may differ in a detail not shown here. Identical values can stand only once.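 Step 1: Grow cells in 96-well plates. Step 2: Expose to compound for 48 hours at 5 concentrations. Step 3: Interpolate endpoints linearly; if unreached, use highest concentration. Here, GI50 denotes the concentration required for 50% inhibition of growth. TGI: total growth inhibition.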 Bounds are passed on as bounds.

Among the data in PubChem BioAssay (NCI) are GI50 and TGI values, retold here.

Take `O=C1NC(=O)C(c2cccc([N+](=O)[O-])c2)=C1Nc1cc(Cl)c(O)c(Cl)c1`: the GI50 with DU-145 prostate, in the assay on K-562 leukemia, in the assay on MALME-3M melanoma, with MDA-MB-231 breast, with MDA-MB-435 and in the assay on NCI/ADR-RES ovarian was more than 25000 nM throughout. Moreover, the GI50 in the assay on SK-OV-3 ovarian was 12000 nM; with SN12C renal it was more than 25000 nM; with U251 CNS, more than 25000 nM; in the assay on UACC-62 melanoma it was more than 20800 nM. The TGI in the assay on DU-145 prostate, with K-562 leukemia, with MALME-3M melanoma, with MDA-MB-231 breast, in the assay with MDA-MB-435 and in the assay with NCI/ADR-RES ovarian was more than 25000 nM in each case. Moreover, the TGI with SK-OV-3 ovarian, in the assay with SN12C renal, in the assay on U251 CNS and in the assay on UACC-62 melanoma was more than 25000 nM in each case.
Regarding `Cc1cc(C)c(NC(=O)c2sc3nc4c(cc3c2N)CN(Cc2ccccc2)CC4)c(C)c1`, the GI50 in the assay with DU-145 prostate is 2620 nM; with K-562 leukemia it was 903 nM; in the assay with MALME-3M melanoma it was 3440 nM; in the assay on MDA-MB-231 breast it was 5750 nM; in the assay with MDA-MB-435, 399 nM; in the assay with NCI/ADR-RES ovarian, 1640 nM. Besides, the GI50 in the assay on SK-OV-3 ovarian is 5350 nM; with SN12C renal, 5600 nM; with U251 CNS, 4350 nM; in the assay on UACC-62 melanoma it was 3900 nM. In addition, the TGI is 7650 nM with DU-145 prostate; more than 100000 nM in the assay with K-562 leukemia; 42000 nM with MALME-3M melanoma; 58900 nM in the assay with MDA-MB-231 breast; 4380 nM with MDA-MB-435; 6240 nM in the assay on NCI/ADR-RES ovarian. Further, the TGI in the assay with SK-OV-3 ovarian was more than 100000 nM; in the assay on SN12C renal it was more than 100000 nM; in the assay with U251 CNS, 24200 nM; in the assay on UACC-62 melanoma, 42400 nM.
With `COc1ccc(-c2ccc(-c3ccc(C(=N)N)s3)s2)cc1`, the GI50 with DU-145 prostate was 193 nM; in the assay with K-562 leukemia, 184 nM; in the assay with MALME-3M melanoma it was 564 nM; in the assay on MDA-MB-231 breast it was 186 nM; in the assay with MDA-MB-435, 179 nM; in the assay with NCI/ADR-RES ovarian, 416 nM. The GI50 with SK-OV-3 ovarian was 2140 nM; with SN12C renal, 205 nM; with U251 CNS, 179 nM; in the assay on UACC-62 melanoma it was 188 nM. The TGI was found to be 357 nM in the assay with DU-145 prostate; 426 nM in the assay with K-562 leukemia; 1390 nM with MALME-3M melanoma; 371 nM with MDA-MB-231 breast; 336 nM in the assay on MDA-MB-435; 1600 nM in the assay with NCI/ADR-RES ovarian. Moreover, the TGI with SK-OV-3 ovarian amounted to 4300 nM; with SN12C renal it was 465 nM; in the assay with U251 CNS, 337 nM; in the assay with UACC-62 melanoma, 357 nM.
Take `CSc1ccc2c(c1)C(=O)c1c-2n(CCCBr)c(=O)c2cc([N+](=O)[O-])ccc12`: the GI50 with DU-145 prostate was 3900 nM; in the assay on K-562 leukemia it was 3940 nM; in the assay with MALME-3M melanoma, 11600 nM; in the assay with MDA-MB-231 breast, more than 100000 nM; with MDA-MB-435, 31000 nM; with NCI/ADR-RES ovarian it was 5500 nM. The GI50 with SK-OV-3 ovarian was 12100 nM; in the assay with SN12C renal, 893 nM; in the assay on U251 CNS it was 1980 nM; with UACC-62 melanoma, 3100 nM. The TGI with DU-145 prostate is more than 100000 nM; in the assay on K-562 leukemia it was 19300 nM; with MALME-3M melanoma, more than 100000 nM; in the assay on MDA-MB-231 breast it was more than 100000 nM; with MDA-MB-435, more than 100000 nM; in the assay with NCI/ADR-RES ovarian, more than 100000 nM. Moreover, the TGI is more than 100000 nM in the assay on SK-OV-3 ovarian, 6950 nM with SN12C renal, more than 100000 nM in the assay on U251 CNS and more than 100000 nM in the assay on UACC-62 melanoma.
On to `CCCCCOc1ccc(/C=N/Nc2cc(C)nc3ccc(Br)cc23)cc1`, for which the GI50 with DU-145 prostate was 1810 nM; in the assay with K-562 leukemia, 1240 nM; in the assay with MALME-3M melanoma, 1880 nM; in the assay on MDA-MB-231 breast it was 1770 nM; with MDA-MB-435, 1760 nM; in the assay with NCI/ADR-RES ovarian it was 1830 nM. Moreover, the GI50 in the assay with SK-OV-3 ovarian is 1750 nM; in the assay on SN12C renal it was 1720 nM; with U251 CNS, 1820 nM; with UACC-62 melanoma, 1660 nM. Further, the TGI in the assay with DU-145 prostate was found to be 3250 nM; with K-562 leukemia, 2830 nM; with MALME-3M melanoma, 3460 nM; in the assay on MDA-MB-231 breast, 3410 nM; in the assay with MDA-MB-435, 3180 nM; with NCI/ADR-RES ovarian it was 4190 nM. Also, the TGI in the assay on SK-OV-3 ovarian was determined as 3180 nM; with SN12C renal, 3270 nM; in the assay on U251 CNS, 3390 nM; in the assay on UACC-62 melanoma it was 3130 nM.
Regarding `CC[C@H]1CN2CCc3cc(OC)c(OC)cc3[C@@H]2C[C@@H]1C[C@H]1NCCc2c1[nH]c1ccc(O)cc21`, the GI50 is 24.9 nM in the assay on DU-145 prostate; 26.3 nM and 35.3 nM in the assay on K-562 leukemia; 47 nM and 336 nM in the assay with MALME-3M melanoma; 15.3 nM with MDA-MB-231 breast; 16.1 nM in the assay on NCI/ADR-RES ovarian; 34.8 nM and 71.1 nM in the assay with SK-OV-3 ovarian. For the same molecule, the GI50 with SN12C renal was 22.8 nM and 34.9 nM; in the assay on U251 CNS, 22.2 nM and 25.5 nM; in the assay on UACC-62 melanoma it was 24.9 nM and 44.8 nM. The TGI was 58.4 nM in the assay with DU-145 prostate; 113 nM and 744 nM and 184 nM in the assay with MALME-3M melanoma; 48.3 nM in the assay with MDA-MB-231 breast; 261 nM with MDA-MB-435; 142 nM and 431 nM and 529 nM in the assay on SK-OV-3 ovarian; 74.1 nM and 136 nM and 190 nM with SN12C renal. Further, in the assay with U251 CNS, the TGI is 70.2 nM and 75 nM and 154 nM.
